Data on four compounds can be found in article PMC7408072 (Pharmaceutics, 2020).

Peptide text beside a SMILES is read from it. * marks the point of attachment. 5TAMRA = CN(C)c1ccc2c(c1)Oc1cc(N(C)C)ccc1C21OC(=O)c2cc(C(=O)*)ccc21

Data set [1] deals with bovine BCECs co-cultured with rat astrocytes. Description: Peptide uptake into endothelial cells and astrocytes by confocal microscopy after fixation (bovine BBB model). It counts as cell-based. To be noted: fixed cells; for peptide uptake in the astrocytes, 3 h: 100 µM peptide applied luminally; for peptide uptake in the astrocytes, 3 h / peptide uptake in the endothelial cells, 3 h: TAMRA fluorescence, confocal microscopy; for peptide uptake in the endothelial cells, 3 h / peptide uptake in the astrocytes, 15 min / peptide uptake in the endothelial cells, 15 min: 100 µM peptide; for peptide uptake in the astrocytes, 15 min / peptide uptake in the endothelial cells, 15 min: confocal microscopy (Figure S3). The method, then: […] TEER was measured at room temperature using an Endohm 12 cup (World Precision Instruments, Sarasota, FL, USA) connected to a Millicell-ERS device (Millipore, Bedford, MA, USA). TEER was measured before application of the peptides and after each experiment. The bovine model had initial TEER values ranging from 771 to 1332 Ω·cm^2, whereas the mouse model had initial TEER values ranging from 136 to 217 Ω·cm^2.
To visualize the TAMRA-peptide taken up by the endothelial cells and astrocytes, the remaining filters (one per batch) from the permeation study using the in vitro bovine BBB model were prepared for confocal microscopy. After removal of the peptide solutions, the cells were fixed with 3% paraformaldehyde in PBS for 15 min at room temperature with horizontal shaking (90 rpm). The cells were washed thrice with PBS prior to permeabilization in 0.1% Triton X-100 in PBS for 5 min and blocking in 2% BSA in PBS for 30 min at room temperature with horizontal shaking (90 rpm). The filter inserts were cut out, divided into smaller pieces, and transferred to a 48-well plate to stain zonula ocludens-1 (ZO-1) in the BCECs and F-actin in the astrocytes. Filter pieces with BCECs facing upwards were incubated with a primary antibody directed against ZO-1 (1:100 in PBS with 2% BSA; Thermo Fischer Scientific, Bedford, MA, USA, no. 617300) for 2 h at room temperature. Subsequently, the filters were washed thrice for 5 min in PBS with 2% BSA prior to 30 min incubation with an Alexa-488-conjugated secondary antibody (1:100 in PBS with 2% BSA; Thermo Fischer Scientific, Bedford, MA, USA, no. A11008). Filter pieces with astrocytes facing upwards were incubated with Alexa-488-conjugated phalloidin (1:133 in PBS with 2% BSA; Thermo Fischer Scientific, Bedford, MA, USA) for 30 min at room temperature and washed thrice for 5 min in PBS with 2% BSA. The filter pieces were mounted on glass slides under coverslips using Immu-Mount™ mounting media and imaged using single wavelength excitation a Zeiss 510 laser-scanning confocal microscope (Carl Zeiss, Jena, Germany).

Data set [2] relates to primary mouse BCECs in co-culture with primary rat astrocytes. As to the kind of experiment: Transport and cellular accumulation (mouse BBB model). It counts as in vitro ADME. To be noted: 100 µM peptide, 3 h, TAMRA fluorescence; for transendothelial permeation of the mouse BBB model compared to TAMRA-NR2B9c: N = 3, n = 3 (Figure S5A); for accumulation in the cell fraction of the mouse BBB model compared to TAMRA-NR2B9c: lysate, N = 3, n = 3 (Figure S5B). The method, then: Generation of mouse BCEC monolayers in co-culture with rat astrocytes: the capillary fragments were allowed to settle for 2–3 h before changing the media to DMEM containing 10% FBS and pyromycin (4 µg/mL). On day 3, the media was changed to DMEM containing 10% FBS and rat astrocytes seeded on the bottom of collagen and fibronectin coated (both 0.01 mg/mL in PBS) Transwell® plate permeable supports (120,000 cells/1.12 cm^2 support with 0.4 µm pore size). On day 5, the media in the Transwell® plate was changed to Complete Mouse Endothelial Cell Medium (PELOBiotech, Planegg/Martinsried, Germany). The endothelial cells were detached from the flask using trypsin-EDTA. The remaining trypsin-EDTA was removed by centrifugation in DMEM containing 10% FBS at 500× g for 5 min at room temperature. The endothelial cells were re-suspended in Complete Mouse Endothelial Cell Medium and seeded on the apical side of the Transwell® plate permeable supports (100,000 cells/support). On day 8, the medium was changed to differentiation medium. On day 10, the mouse BBB model was ready for use as evident by the measured transendothelial electrical resistance (TEER) values for each filter prior experimental start.
Transport across bovine or mouse BCEC monolayers co-cultured with rat astrocytes was carried out over 3 h at 37 °C with horizontal shaking (90 rpm). TEER was measured at room temperature using an Endohm 12 cup (World Precision Instruments, Sarasota, FL, USA) connected to a Millicell-ERS device (Millipore, Bedford, MA, USA). TEER was measured before application of the peptides and after each experiment. The bovine model had initial TEER values ranging from 771 to 1332 Ω·cm^2, whereas the mouse model had initial TEER values ranging from 136 to 217 Ω·cm^2.
The withdrawn volume was replaced with media.
Transported peptide was calculated based on fluorescence using the same method as described for peptides applied to the bovine model. Subsequently, the peptide solutions were removed from the cells and the filters washed thrice with 4 °C hHBSS. To isolate the peptides accumulated in the cell fraction, the filter inserts were cut out and 250 µL of ice-cold lysis buffer added. The peptides were retrieved and quantified as described for the cell uptake fraction obtained following the permeation study using the bovine model.

For `CC[C@H](C)[C@H](NC(=O)[C@H](CO)NC(=O)[C@H](CO)NC(=O)[C@H](CC(C)C)NC(=O)[C@H](CCCCN)NC(=O)c1ccc2c(c1)C(=O)OC21c2ccc(N(C)C)cc2Oc2cc(N(C)C)ccc21)C(=O)N[C@@H](CCC(=O)O)C(=O)N[C@@H](CO)C(=O)N[C@@H](CC(=O)O)C(=O)N[C@H](C(=O)O)C(C)C` [TAMRA-NR2B9c] (5TAMRA-KLSSIESDV-OH), in data set [1], the “peptide uptake in the astrocytes, 3 h” value is on record as “not observed” and the “peptide uptake in the endothelial cells, 3 h” value was “not observed”.
Regarding `CC[C@H](C)[C@H](NC(=O)CCOCCOCCN(CCOCCOCCC(=O)N[C@H](C(=O)N[C@@H](CCC(=O)O)C(=O)N[C@H](C(=O)N[C@@H](CC(=O)O)C(=O)N[C@H](C(=O)O)C(C)C)[C@@H](C)O)[C@@H](C)CC)C(=O)[C@H](CCCNC(=N)N)NC(=O)[C@H](CCCNC(=N)N)NC(=O)[C@H](CCCNC(=N)N)NC(=O)[C@H](CCC(N)=O)NC(=O)[C@H](CCCNC(=N)N)NC(=O)[C@H](CCCNC(=N)N)NC(=O)[C@H](CCCCN)NC(=O)[C@H](CCCCN)NC(=O)[C@H](CCCNC(=N)N)NC(=O)CNC(=O)[C@H](Cc1ccc(O)cc1)NC(=O)c1ccc2c(c1)C(=O)OC21c2ccc(N(C)C)cc2Oc2cc(N(C)C)ccc21)C(=O)N[C@@H](CCC(=O)O)C(=O)N[C@H](C(=O)N[C@@H](CC(=O)O)C(=O)N[C@H](C(=O)O)C(C)C)[C@@H](C)O` [TAMRA-Tat-N-dimer], the “transendothelial permeation of the mouse BBB model compared to TAMRA-NR2B9c” value in data set [2] is on record as “lower”. For the same compound, in data set [1], the “peptide uptake in the astrocytes, 3 h” value was “not in the astrocytes”; the “peptide uptake in the astrocytes, 15 min” value is “not in the astrocytes”; the “peptide uptake in the endothelial cells, 15 min” value is “Minor uptake”; the “peptide uptake in the endothelial cells, 3 h” value was “low level”.
Regarding `CC[C@H](C)[C@H](NC(=O)[C@H](CO)NC(=O)[C@H](CO)NC(=O)[C@H](CC(C)C)NC(=O)[C@H](CCCCN)NC(=O)[C@H](CCCNC(=N)N)NC(=O)[C@H](CCCNC(=N)N)NC(=O)[C@H](CCCNC(=N)N)NC(=O)[C@H](CCC(N)=O)NC(=O)[C@H](CCCNC(=N)N)NC(=O)[C@H](CCCNC(=N)N)NC(=O)[C@H](CCCCN)NC(=O)[C@H](CCCCN)NC(=O)[C@H](CCCNC(=N)N)NC(=O)CNC(=O)[C@H](Cc1ccc(O)cc1)NC(=O)c1ccc2c(c1)C(=O)OC21c2ccc(N(C)C)cc2Oc2cc(N(C)C)ccc21)C(=O)N[C@@H](CCC(=O)O)C(=O)N[C@@H](CO)C(=O)N[C@@H](CC(=O)O)C(=O)N[C@H](C(=O)O)C(C)C` [TAMRA-Tat-NR2B9c] (5TAMRA-YGRKKRRQRRRKLSSIESDV-OH), in data set [2], the “transendothelial permeation of the mouse BBB model compared to TAMRA-NR2B9c” value is listed as “to a greater extent than TAMRA-NR2B9c” and the “accumulation in the cell fraction of the mouse BBB model compared to TAMRA-NR2B9c” value was “to a greater extent than TAMRA-NR2B9c”. Further, in data set [1], the “peptide uptake in the astrocytes, 3 h” value was “observed in both cell types”; the “peptide uptake in the astrocytes, 15 min” value is on record as “uptake”; the “peptide uptake in the endothelial cells, 15 min” value is listed as “uptake”; the “peptide uptake in the endothelial cells, 3 h” value is “observed in both cell types”.
Take `CN(C)c1ccc2c(c1)Oc1cc(N(C)C)ccc1C21OC(=O)c2cc(C(=O)N[C@@H](Cc3ccc(O)cc3)C(=O)NCC(=O)N[C@@H](CCCNC(=N)N)C(=O)N[C@@H](CCCCN)C(=O)N[C@@H](CCCCN)C(=O)N[C@@H](CCCNC(=N)N)C(=O)N[C@@H](CCCNC(=N)N)C(=O)N[C@@H](CCC(N)=O)C(=O)N[C@@H](CCCNC(=N)N)C(=O)N[C@@H](CCCNC(=N)N)C(=O)N[C@@H](CCCNC(=N)N)C(=O)O)ccc21` [TAMRA-Tat]: in data set [2], the “transendothelial permeation of the mouse BBB model compared to TAMRA-NR2B9c” value is listed as “similar” and the “accumulation in the cell fraction of the mouse BBB model compared to TAMRA-NR2B9c” value was “to a greater extent than TAMRA-NR2B9c”. Also, in data set [1], the “peptide uptake in the astrocytes, 3 h” value is “observed in both cell types”; the “peptide uptake in the astrocytes, 15 min” value is given as “uptake”; the “peptide uptake in the endothelial cells, 15 min” value is “uptake”; the “peptide uptake in the endothelial cells, 3 h” value is “observed in both cell types”.
